Test results taken from patent US9078810B2, “Transdermal delivery system” (Acrux DDS Pty Ltd., priority 2007, dated 2015).
Read-outs that look alike come from different tables or passages of the source.

What was measured:
[1] = Diclofenac Transdermal Spray finite-dose in vitro diffusion study (Example 6); assay type: in vitro ADME, human; settings: 24 hr
Experimental: Finite-dose in vitro diffusion studies were undertaken dermatomed skin (Padgett Model B or S electric dermatome set at 500 μm) prepared from excised […], abdominal skin.
These experiments were conducted over 24 hours using flow-through systems with a 1-cm^2 administration area.
Following a 2-h equilibration of the skin with the receptor solution (RS) of phosphate-buffered saline (PBS) pH 7.4, the stratum corneum surface was dosed with a volume of 3.6 μL/cm^2 (unless otherwise indicated) of a test formulation using a positive displacement pipette. The formulation was spread evenly over the skin area using the pipette tip.
The Diclofenac Transdermal Spray formulations were as follows: — • 0.1-2.0% Diclofenac (DIC) diethylamine in Isopropyl alcohol (IPA) [no enhancer] • 0.1-2.0% DIC diethylamine, 5% Octyl Salicylate (OS) in IPA [OS alone] • 0.1-2.0% DIC diethylamine, 2.5% Polyethylene glycol 200 (PEG 200) in IPA [PEG 200 alone] • 0.1-2.0% DIC diethylamine, 5% OS, 2.5% PEG 200 in IPA [OS+PEG 200]
A commercially available Diclofenac gel (approximately 5 mg/cm2) was used as a control. The commercially available gel was applied using a solid cap to simulate the rubbing action required when using the product. Approximately 7 mg gel was applied to the circular surface of a black polypropylene cylindrical cap (Alltech catalogue #98105, diameter 11 mm). […]

[2] = assay type: in vitro ADME, human
Text: The receptor solutions (Phosphate Buffered Saline pH7.4) maintained sink conditions below the skin.
The formulations consisted of:— • Composition (Camp) 1 (Control): 1.35% Nestorone (NES), 0.35% Ethinylestradiol (EE), 5% Octyl Salicylate (OS) in Isopropyl Alcohol (IPA) • Comp 2: 1.35% NES, 0.35% EE, 5% OS, 5% Polyethylene glycol 400 (PEG400) in IPA • Comp 3: 1.35% NES, 0.35% EE, 0.5% Polyethylene glycol (PEG200) in IPA • Comp 4: 1.35% NES, 0.35% EE, 5% OS, 0.5% PEG200 in IPA • Comp 5: 1.35% NES, 0.35% EE, 1% PEG200 in IPA • Comp 6: 1.35% NES, 0.35% EE, 5% OS, 1% PEG200 in IPA • Comp 7: 1.35% NES, 0.35% EE, 2.5% PEG200 in IPA • Comp 8: 1.35% NES, 0.35% EE, 5% OS, 2.5% PEG200 in IPA • Comp 9: 1.35% NES, 0.35% EE, 5% PEG200 in IPA • Comp 10:1.35% NES, 0.35% EE, 5% OS, 5% PEG200 in IPA • Comp 11: 1.35% NES, 0.35% EE, 10% PEG200 in IPA • Camp 12: 1.35% NES, 0.35% EE, 5% OS, 10% PEG200 in IPA

[3] = Finite-dose in vitro diffusion study, Franz-type cells, 24 hours (Example 1); assay type: in vitro ADME, human; settings: effect of PEG200 in combination with OS vs 5% OS comparison composition, 2.8% NETA, 0.55% E2, 3.6 μL/cm2
Experimental: These experiments were performed over 24 hours using Franz-type cells. Pre-cut skin membranes were mounted as a barrier between the halves of greased (high vacuum grease, BDH) horizontal Franz-type permeation cells in the middle of the receptor chamber of the cell with the stratum corneum facing the donor chamber. The area available for permeation was approximately 0.925 cm2. The receptor chambers of the permeation cells were filled with the receptor phase (Phosphate Buffered Saline pH 7.4) and capped. The permeation cells were immersed in a constant temperature water bath such that the receptor chambers were maintained at 35° C. Receptor chamber contents were continuously agitated by small PTFE-coated magnetic stirrer bars driven by submersible magnetic stirrers. The skin was allowed to equilibrate to temperature with receptor solution for 1 h in the water bath prior to dosing.
The formulations were applied to the skin at a dose of 3.6 μL/cm2. The applied formulation was spread over the skin area using an Eppendorf positive displacement pipette tip without breaking the skin membrane. […]

[4] = Finite-dose in vitro diffusion study, flow through diffusion cells, 15 μL/cm2 (Example 3); settings: effect of PEG200 (0.5-2.5%) in combination with 5% OS, 2% TES, 2% PVP, 30% IPA in ethanol, 24 hr
Experimental: These experiments were performed over 24 hours using stainless steel, flow through diffusion cells based on those described previously (Cooper, E. R. J. Pharm. Sci. 1984, 73, 1153-1156) except that the cell was modified to increase the diffusion area to 1.0 cm2. The formulations were applied using a finite dose technique (Franz, T. J. Curr. Probl. Dermatol., 1978, 7, 58-68) to mimic clinical dosing conditions at an applied dose volume of 15 μL/cm2. […] The receptor solutions (0.002% w/v NaN3) maintained sink conditions below the skin.
The formulations consisted of:— • Comp 1: 2% Testosterone (TES), 5% Octyl Salicylate (OS), 2% polyvinyl pyrrolidine (PVP), 30% isopropyl alcohol (IPA) in ethanol (95%) • Comp 2: 2% TES, 5% OS, 2% PVP, 30% IPA, 0.5% polyethylene glycol 200 (PEG200) in ethanol (95%) • Comp 3: 2% TES, 5% OS, 2% PVP, 30% IPA, 1.0% PEG200 in ethanol (95%) • Comp 4: 2% TES, 5% OS, 2% PVP, 30% IPA, 2.5% PEG200 in ethanol (95%)

[5] = Finite-dose in vitro diffusion study, flow through diffusion cells, 3.6 μL/cm2 (Example 4); settings: effect of PEG200 (1.0-2.5%) in combination with 5% OS, 5% TES in ethanol (95%), 24 hr
Experimental: These experiments were performed over 24 hours using stainless steel, flow through diffusion cells based on those described previously (Cooper, E. R. J. Pharm. Sci. 1984, 73, 1153-1156) except that the cell was modified to increase the diffusion area to 1.0 cm2. The formulations were applied using a finite dose technique (Franz, T. J. Curr. Probl. Dermatol., 1978, 7, 58-68) to mimic clinical dosing conditions at an applied dose volume of 3.6 μL/cm2. […] The receptor solutions (0.002% w/v NaN3) maintained sink conditions below the skin.

[6] = Estradiol Spray finite-dose in vitro permeation study (Example 7); assay type: in vitro ADME, human; settings: 24 h
Experimental: Finite-dose in vitro permeation studies were undertaken using dermatomed skin (Padgett Model B or S electric dermatome set at 500 μm) prepared from excised […], abdominal skin.
These experiments were conducted over 24 hours (h) using flow-through systems with a 1-cm2 administration area. […] The receptor solution was maintained at a nominal flow rate of 0.5 mL/h by a peristaltic pump (Watson Marlow 520S Peristaltic Pump with 313A adaptor and 308MC 8 roller pump-head; Stauff Corporation, Australia). The cells were placed on a heater bar to keep the temperature of the skin at 32±1° C.
Following a 2-h equilibration of the skin with the receptor solution (RS; 0.002% sodium azide), the stratum corneum surface was dosed with 3.6 μL/cm^2 of an Estradiol Transdermal Spray formulation using a positive displacement pipette. The formulation was spread evenly over the skin area using the pipette tip.
The Estradiol transdermal spray formulations contained:— • Estradiol (E2)+Octyl Salicylate (OS) in Isopropyl Alcohol IPA • E2+OS+Polyethylene glycol (PEG200) in Isopropyl Alcohol IPA • E2+OS+Polyethylene glycol 400 (PEG400) in IPA

## O=C(O)Cc1ccccc1Nc1c(Cl)cccc1Cl [DIC, Diclofenac]
[1]; effect of PEG200 in combination with OS, DIC diethylamine, 5% OS, 2.5% PEG 200 in IPA
  permeation through human epidermis in vitro: significantly enhance
[1]; effect of PEG 400, either alone or in combination with OS
  permeation through human epidermis in vitro: decrease

## C#C[C@]1(O)CC[C@H]2[C@@H]3CCc4cc(O)ccc4[C@H]3CC[C@@]21C [Ethinylestradiol]
[2]
  permeation through human epidermis in vitro: inhibit

## C=C1C[C@H]2[C@@H]3CCC4=CC(=O)CC[C@@H]4[C@H]3CC[C@]2(C)[C@@]1(OC(C)=O)C(C)=O [Nestorone]
[2]
  permeation through human epidermis in vitro: did not have a significant effect

## C#C[C@]1(OC(C)=O)CC[C@H]2[C@@H]3CCC4=CC(=O)CC[C@@H]4[C@H]3CC[C@@]21C [Norethisterone Acetate]
[3]
  permeation through human epidermis in vitro: significantly enhance

## C[C@]12CC[C@H]3[C@@H](CCC4=CC(=O)CC[C@@]43C)[C@@H]1CC[C@@H]2O [Testosterone]
[4]
  permeation through human epidermis in vitro: significantly enhance
[5]
  permeation through human epidermis in vitro: significantly enhance

## C[C@]12CC[C@@H]3c4ccc(O)cc4CC[C@H]3[C@@H]1CC[C@@H]2O [estradiol, Estradiol]
[3]
  permeation through human epidermis in vitro: significantly enhance
[6]; effect of PEG200 combined with OS in IPA, 3.6 μL/cm^2
  permeation through human skin in vitro: synergistically enhanced
[6]; effect of PEG400 alone and PEG400+OS compared with the control formulation
  permeation through human skin in vitro: no significant effect
